Measurements taken from patent US11851449B2, “Heterocyclic amide compounds having an RORvt inhibitory action” (TAKEDA PHARMACEUTICAL COMPANY LIMITED, priority 2013, dated 2023).
Structures can show the parent of a compound that is named as a salt.

Tests used:
RORγt [1] = biological target: T1, RORγt (Homo sapiens, UniProt P51449); experiment: Jurkat reporter test (human IL-17 ROR response element luciferase reporter); format: cell-based; settings: Jurkat, read-out: luminescence level inhibitory rate (%) at test compound 3 μM
T1 sequence (P51449 1-497 isoform P51449-2): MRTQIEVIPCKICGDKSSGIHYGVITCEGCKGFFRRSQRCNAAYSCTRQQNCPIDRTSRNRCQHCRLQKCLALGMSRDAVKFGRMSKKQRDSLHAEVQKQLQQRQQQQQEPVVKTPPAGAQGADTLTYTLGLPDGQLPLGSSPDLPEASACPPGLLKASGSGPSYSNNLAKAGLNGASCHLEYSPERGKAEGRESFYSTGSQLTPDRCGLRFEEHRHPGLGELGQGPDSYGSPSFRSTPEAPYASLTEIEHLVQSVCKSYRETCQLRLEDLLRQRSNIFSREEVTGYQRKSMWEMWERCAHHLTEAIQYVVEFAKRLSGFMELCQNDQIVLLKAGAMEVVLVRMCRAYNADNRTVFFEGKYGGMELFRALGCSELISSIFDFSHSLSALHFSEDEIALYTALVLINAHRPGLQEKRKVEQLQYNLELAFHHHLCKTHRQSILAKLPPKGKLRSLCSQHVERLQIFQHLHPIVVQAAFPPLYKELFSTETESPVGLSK
Summary of the method: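 Jurkat cells were electroporated (1350 V, 10 ms, 3 pulses) with reporter constructs, then cultured overnight with compound in RPMI containing 10% lipid-reduced FCS, 10 mM HEPES pH 7.5 and 5 μM lovastatin. Luciferase was quantified by Bright-Glo luminescence after 10 min at room temperature.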

RORγt [2] = biological target: T1, RORγt; experiment: Cofactor recruitment test (Alpha Screen, biotinylated SRC-1 peptide); format: biochemical; settings: read-out: signal value inhibitory rate (%) at test compound 1 μM
Experimental: Cofactor Recruitment Test
Cofactor recruitment test was performed by Alpha Screen (Histidine Detection Kit, PerkinElmer) method. First, a test compound was diluted with an assay buffer (50 mM Tris-HCl (pH 7.5), 50 mM KCl, 1 mM DTT, 0.1% BSA) and added to a 384 well plate by 5 μL. […] The mixture was stood in a dark place for 1 hr, and the signal value was measured by Envision (PerkinElmer).

RORγt [3] = biological target: T1, RORγt; experiment: RORγt binding test (TR-FRET, fluorescent-labeled cholesterol); settings: read-out: binding inhibitory rate (%) of fluorescent-labeled cholesterol to RORγt at test compound 1 μM
Summary of the method: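 His-tagged RORγt and BODIPY-cholesterol were incubated with compound for 20 min at room temperature in Tris-HCl pH 7.5, 100 mM NaCl, 1 mM DTT and 0.1% BSA. Terbium anti-His antibody was then added for a further 20 min.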

Row | SMILES | inhibition at 3 µM (RORγt [1]) | inhibition at 1 µM (RORγt [2]) | inhibition at 1 µM (RORγt [3])
1 | CCC(=O)N[C@@H](C(=O)Nc1ccc([Si](C)(C)C)c(F)c1)c1ccc(COC)cc1 [Example 79, N-((1R)-2-((3-fluoro-4-(trimethylsilyl)phenyl)amino)-1-(4-(methoxymethyl)phenyl)-2-oxoethyl)propanamide] | 98.4% | 93% | 103%
2 | COCc1ccc([C@@H](NC(=O)CCS(C)(=O)=O)C(=O)Nc2ccc([Si](C)(C)C)c(F)c2)cc1 [Example 80, N-((1R)-2-((3-fluoro-4-(trimethylsilyl)phenyl)amino)-1-(4-(methoxymethyl)phenyl)-2-oxoethyl)-3-(methylsulfonyl)propanamide] | 100% | 93.8% | 102%
3 | COCc1ccc([C@@H](NC(=O)CS(C)(=O)=O)C(=O)Nc2ccc([Si](C)(C)C)c(F)c2)cc1 [Example 81, (2R)—N-(3-fluoro-4-(trimethylsilyl)phenyl)-2-(4-(methoxymethyl)phenyl)-2-(((methylsulfonyl)acetyl)amino)acetamide] | 98.3% | 94.9% | 103%
4 | COCc1ccc([C@@H](NC(=O)c2cc(O)no2)C(=O)Nc2cc(F)c([Si](C)(C)C)c(F)c2)cc1 [Example 82, N-((1R)-2-((3,5-difluoro-4-(trimethylsilyl)phenyl)amino)-1-(4-(methoxymethyl)phenyl)-2-oxoethyl)-3-hydroxy-1,2-oxazole-5-carboxamide] | 97% | 96.8% | 103%
5 | COc1ccc([C@@H](NC(=O)c2cc(O)no2)C(=O)Nc2ccc([Si](C)(C)C)c(F)c2)cc1 [Example 83, N-((1R)-2-((3-fluoro-4-(trimethylsilyl)phenyl)amino)-1-(4-methoxyphenyl)-2-oxoethyl)-3-hydroxy-1,2-oxazole-5-carboxamide] | 63.2% | 86.5% | 100%
6 | COCc1ccc([C@@H](NC(=O)C2CC2(F)F)C(=O)Nc2ccc([Si](C)(C)C)c(F)c2)cc1 (stereo partly drawn) [Example 84, 2,2-difluoro-N-((1R)-2-((3-fluoro-4-(trimethylsilyl)phenyl)amino)-1-(4-(methoxymethyl)phenyl)-2-oxoethyl)cyclopropanecarboxamide] | 100% | 94.4% | 101%
7 | COCc1ccc([C@@H](NC(=O)CO)C(=O)Nc2ccc([Si](C)(C)C)c(F)c2)cc1 [Example 85, (2R)—N-(3-fluoro-4-(trimethylsilyl)phenyl)-2-(glycoloylamino)-2-(4-(methoxymethyl)phenyl)acetamide] | 99% | 90.1% | 103%
8 | COCc1ccc([C@@H](NC(=O)CNC(C)=O)C(=O)Nc2ccc([Si](C)(C)C)c(F)c2)cc1 [Example 86, N^2-acetyl-N-((1R)-2-((3-fluoro-4-(trimethylsilyl)phenyl)amino)-1-(4-(methoxymethyl)phenyl)-2-oxoethyl)glycinamide] | 99.1% | 95.2% | 102%
9 | COCc1ccc([C@@H](NC(=O)C2CCN(C(C)=O)CC2)C(=O)Nc2ccc([Si](C)(C)C)c(F)c2)cc1 [Example 87, 1-acetyl-N-((1R)-2-((3-fluoro-4-(trimethylsilyl)phenyl)amino)-1-(4-(methoxymethyl)phenyl)-2-oxoethyl)piperidine-4-carboxamide] | 98.2% | 83.9% | 102%
10 | COCc1ccc([C@@H](NC(=O)C2CCOCC2)C(=O)Nc2ccc([Si](C)(C)C)c(F)c2)cc1 [Example 88, N-((1R)-2-((3-fluoro-4-(trimethylsilyl)phenyl)amino)-1-(4-(methoxymethyl)phenyl)-2-oxoethyl)tetrahydro-2H-pyran-4-carboxamide] | 98.1% | 90.7% | 103%
11 | COCc1ccc([C@@H](NC(=O)CC2CCOCC2)C(=O)Nc2ccc([Si](C)(C)C)c(F)c2)cc1 [Example 89, (2R)—N-(3-fluoro-4-(trimethylsilyl)phenyl)-2-(4-(methoxymethyl)phenyl)-2-((tetrahydro-2H-pyran-4-ylacetyl)amino)acetamide] | 101% | 95.5% | 103%
12 | CCNC(=O)N[C@@H](C(=O)Nc1ccc([Si](C)(C)C)c(F)c1)c1ccc(COC)cc1 [Example 90, (2R)-2-((ethylcarbamoyl)amino)-N-(3-fluoro-4-(trimethylsilyl)phenyl)-2-(4-(methoxymethyl)phenyl)acetamide] | 101% | 96% | 102%
13 | COCc1ccc([C@@H](NC(=O)C2CC(F)(F)C2)C(=O)Nc2ccc([Si](C)(C)C)c(F)c2)cc1 [Example 91, 3,3-difluoro-N-((1R)-2-((3-fluoro-4-(trimethylsilyl)phenyl)amino)-1-(4-(methoxymethyl)phenyl)-2-oxoethyl)cyclobutanecarboxamide] | 98% | 94.6% | 102%
14 | COCc1ccc([C@@H](NC(=O)CCC(F)F)C(=O)Nc2ccc([Si](C)(C)C)c(F)c2)cc1 [Example 92, 4,4-difluoro-N-((1R)-2-((3-fluoro-4-(trimethylsilyl)phenyl)amino)-1-(4-(methoxymethyl)phenyl)-2-oxoethyl)butanamide] | 98.8% | 92.8% | 102%
15 | COCc1ccc([C@@H](NC(=O)CC(F)(F)F)C(=O)Nc2ccc([Si](C)(C)C)c(F)c2)cc1 [Example 93, 3,3,3-trifluoro-N-((1R)-2-((3-fluoro-4-(trimethylsilyl)phenyl)amino)-1-(4-(methoxymethyl)phenyl)-2-oxoethyl)propanamide] | 99.1% | 92.3% | 102%
16 | COCc1ccc([C@@H](NC(=O)CCC(F)(F)F)C(=O)Nc2ccc([Si](C)(C)C)c(F)c2)cc1 [Example 94, 4,4,4-trifluoro-N-((1R)-2-((3-fluoro-4-(trimethylsilyl)phenyl)amino)-1-(4-(methoxymethyl)phenyl)-2-oxoethyl)butanamide] | 101% | 91.5% | 102%
17 | COCc1ccc([C@@H](NC(=O)N2CC[C@@H](F)C2)C(=O)Nc2ccc([Si](C)(C)C)c(F)c2)cc1 [Example 95, (3R)-3-fluoro-N-((1R)-2-((3-fluoro-4-(trimethylsilyl)phenyl)amino)-1-(4-(methoxymethyl)phenyl)-2-oxoethyl)pyrrolidine-1-carboxamide] | 99.8% | 93.8% | 99.3%
18 | COCc1ccc([C@@H](NC(=O)N2CC[C@H](F)C2)C(=O)Nc2ccc([Si](C)(C)C)c(F)c2)cc1 [Example 96, (3S)-3-fluoro-N-((1R)-2-((3-fluoro-4-(trimethylsilyl)phenyl)amino)-1-(4-(methoxymethyl)phenyl)-2-oxoethyl)pyrrolidine-1-carboxamide] | 99.5% | 91.2% | 98.6%
19 | COCc1ccc([C@@H](NC(=O)CN2CCOCC2)C(=O)Nc2ccc([Si](C)(C)C)c(F)c2)cc1 [Example 97, (2R)—N-(3-fluoro-4-(trimethylsilyl)phenyl)-2-(4-(methoxymethyl)phenyl)-2-((morpholin-4-ylacetyl)amino)acetamide hydrochloride] | 98.3% | 93.6% | 102%
20 | COCc1ccc([C@@H](NC(=O)c2cc(O)no2)C(=O)Nc2cc(F)c([Si](C)(C)C)cc2F)cc1 [Example 98, N-((1R)-2-((2,5-difluoro-4-(trimethylsilyl)phenyl)amino)-1-(4-(methoxymethyl)phenyl)-2-oxoethyl)-3-hydroxy-1,2-oxazole-5-carboxamide] | 99.2% | 95.8% | 102%
21 | COc1ccc([C@@H](NC(=O)c2cc(O)no2)C(=O)Nc2cc(F)c([Si](C)(C)C)c(F)c2)cc1 [Example 99, N-((1R)-2-((3,5-difluoro-4-(trimethylsilyl)phenyl)amino)-1-(4-methoxyphenyl)-2-oxoethyl)-3-hydroxy-1,2-oxazole-5-carboxamide] | 99.9% | 94.3% | 102%
